#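 Test compounds were applied to cells in 96-well plates for 48 hours at 5 doses. GI50: concentration for 50% inhibition of growth. TGI: total growth inhibition.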
# Tests used:
# Experiment in all cases: growth of human tumour cells (NCI), 48 h
# M14 melanoma = system: M14 melanoma
# OVCAR-4 ovarian = system: OVCAR-4 ovarian
# BT-549 breast = system: BT-549 breast
# UO-31 renal = system: UO-31 renal
# IGROV1 ovarian = system: IGROV1 ovarian
# TK-10 renal = system: TK-10 renal
# SK-OV-3 ovarian = system: SK-OV-3 ovarian
# HCT-116 colon = system: HCT-116 colon
# HT29 colon = system: HT29 colon
# NCI-H226 lung = system: NCI-H226 lung
SMILES,TGI (M14 melanoma) [µM],TGI (OVCAR-4 ovarian) [µM],TGI (BT-549 breast) [µM],TGI (UO-31 renal) [µM],TGI (IGROV1 ovarian) [µM],TGI (TK-10 renal) [µM],TGI (SK-OV-3 ovarian) [µM],TGI (HCT-116 colon) [µM],GI50 (M14 melanoma) [µM],GI50 (HT29 colon) [µM],TGI (HT29 colon) [µM],GI50 (OVCAR-4 ovarian) [µM],GI50 (UO-31 renal) [µM],GI50 (IGROV1 ovarian) [µM],GI50 (TK-10 renal) [µM],GI50 (SK-OV-3 ovarian) [µM],GI50 (HCT-116 colon) [µM],GI50 (NCI-H226 lung) [µM],TGI (NCI-H226 lung) [µM],GI50 (BT-549 breast) [µM]
Cc1ccc(C)c2c(N=Nc3ccccc3[N+](=O)[O-])c(O)[nH]c12,> 100,> 100,> 100,> 100,> 100,> 100,> 100,> 100,–,–,–,–,–,–,–,–,–,–,–,–
COc1cc(NC(C)CCCN)c2ncccc2c1Sc1ccc(Cl)cc1 (stereo unspecified),3.34,3.1,–,3.19,5.31,3.5,3.08,3.27,1.77,1.9,3.5,1.72,1.59,2.31,2.01,1.65,1.7,–,–,–
CC(=O)c1cccc(NC(=O)c2ccc(NC3=C(Cl)C(=O)N(Cc4ccccc4)C3=O)cc2)c1,33.3,92.2,27.9,3.12,–,–,> 100,25.9,17.1,27.3,> 100,24.9,1.52,–,–,> 100,12.6,9.9,28.1,8.8
COc1ccc(C(=O)OC2C(OC3C(O)COC(O[C@H]4C[C@H]5[C@@H]6CC=C7C[C@@H](O)CC[C@]7(C)[C@H]6CC[C@]5(C)[C@H]4[C@H](C)C(=O)CCC(C)C)C3OC(C)=O)OCC(O)C2O)cc1 (stereo partly specified),–,19.6,2.18,0.0056,8.79,6.6,0.191,3.15,–,< 0.003,5.91,0.00892,< 0.003,< 0.003,0.0148,< 0.003,< 0.003,–,–,< 0.003
Cc1cc2c(=O)cc(-c3ccc(F)cc3)oc2c(C(=O)O)c1C,> 100,> 100,–,> 100,> 100,> 100,> 100,> 100,–,–,> 100,–,–,–,–,–,–,–,> 100,–
CC(C)(C)OC(=O)NCCCCCCCCCCn1c2c(c3ccccc3c1=O)C(=O)c1ccccc1-2,> 100,> 100,> 100,> 100,–,52.1,> 100,> 100,> 100,> 100,> 100,> 100,> 100,–,20.3,40.3,60,> 100,> 100,57.5
CC12CC(Sc3ccccc3N1)c1ccccc1O2 (stereo unspecified),37.6,31.2,–,27.4,48.6,51.4,58.4,29.2,–,–,35,–,–,–,–,–,–,–,–,–
O=[N+]([O-])c1ccc(COc2cccc3cccnc23)cc1,29,36.7,–,68.1,67.7,52.5,> 100,> 100,–,–,> 100,–,–,–,–,–,–,–,95.4,–
Cc1cnc(SCCN2CCN(C)CC2)nc1-c1cc2ccccc2s1,27.4,34.1,–,20.8,–,33.1,13.8,26.8,–,–,18.7,–,–,–,–,–,–,–,25.3,–
Oc1c2c(c(O)c3ccccc13)C1(N=N2)c2ccccc2Oc2ccccc21,26.1,–,23.5,23.3,10.2,23,31.4,17.7,–,–,30.2,–,–,–,–,–,–,–,–,–
COc1ccc(-c2nc(-c3nc4ccc(C(F)(F)F)cc4[nH]3)c3ccccn23)cc1,> 100,–,> 100,> 100,> 100,> 100,> 100,> 100,83.1,58.2,> 100,–,> 100,> 100,> 100,> 100,26.1,–,–,> 100
CCOP(=O)(CC(=O)C1=C(O)C(CCCCNC(=O)OC(C)(C)C)N(Cc2ccccc2)C1=O)OCC (stereo unspecified),> 100,> 100,–,> 100,> 100,> 100,> 100,> 100,–,–,> 100,–,–,–,–,–,–,–,> 100,–
CN1C(=O)C(=CN(C)c2ccccc2)C(=O)N(C)C1=O,> 100,> 100,–,> 100,> 100,> 100,–,> 100,–,–,–,–,–,–,–,–,–,–,> 100,–
O=C1c2c(c3c4ccccc4[nH]c3c3[nH]c4ccccc4c23)C(=O)N1Cc1ccccc1,10.9,10.5,–,6.69,18.7,11.6,9.49,8.76,–,–,14.5,–,–,–,–,–,–,–,6.1,–
Cc1cc(NS(=O)(=O)c2ccc(NC(=O)COC(=O)c3cccc4c(=O)c5ccccc5[nH]c34)cc2)no1,> 100,> 100,–,> 100,> 100,> 100,> 100,> 100,–,–,> 100,–,–,–,–,–,–,–,> 100,–
COC1=CC(=O)NCCN1,> 100,> 100,–,> 100,> 100,> 100,> 100,> 100,–,–,> 100,–,–,–,–,–,–,–,> 100,–
Cc1cc(C)c(C(=O)/C=C/c2ccccc2)c(C)c1,40.3,81.6,–,> 100,> 100,> 100,> 100,78.2,–,–,> 100,–,–,–,–,–,–,–,43.1,–
CC(C)(C)N=CN(C=C(c1ccccc1)c1ccccc1)C1CCCCC1,–,> 100,–,–,> 100,> 100,–,> 100,–,–,> 100,–,–,–,–,–,–,–,–,–
CC(=O)NC1=C(Sc2ccc(Cl)cc2)C(=O)c2ccccc2C1=O,–,3.34,18,4.13,17.1,13.5,29.1,–,–,–,25.6,–,–,–,–,–,–,–,24.2,–
C#CC(=O)OCC#CCOC(=O)C#C,49.5,–,36.6,23.1,–,37.9,> 100,35.7,–,–,42.7,–,–,–,–,–,–,–,40.3,–
CN(C)CCNc1nc2ccccc2c2occc12,68.5,82.2,> 100,> 100,89.6,> 100,> 100,> 100,28.8,–,–,26.3,26.1,34.1,60.5,85.1,34.1,–,–,> 100

# Source: PubChem BioAssay (NCI)
